In ChEMBL document CHEMBL5696442, “Discovery of type II inhibitors of TGFβ-activated kinase 1 (TAK1) and mitogen-activated protein kinase kinase kinase kinase 2 (MAP4K2)” (J Med Chem, 2015):
Activity calls are given as the source filed them. The calls are words filed in the database; no cut-off is given here.

What was measured:
[1] = target: Serine/threonine-protein kinase 4 (Homo sapiens) (UniProt Q13043); experiment: Inhibition of MST1 Lys1 labeling site harbouring ETGQIVAIKQVPVESDLQEIIK in human A-375 cells at 0.05 uM by KiNativ Profiling analysis relative to control
Chain of Serine/threonine-protein kinase 4 (Homo sapiens) (Q13043 whole entry, looked up): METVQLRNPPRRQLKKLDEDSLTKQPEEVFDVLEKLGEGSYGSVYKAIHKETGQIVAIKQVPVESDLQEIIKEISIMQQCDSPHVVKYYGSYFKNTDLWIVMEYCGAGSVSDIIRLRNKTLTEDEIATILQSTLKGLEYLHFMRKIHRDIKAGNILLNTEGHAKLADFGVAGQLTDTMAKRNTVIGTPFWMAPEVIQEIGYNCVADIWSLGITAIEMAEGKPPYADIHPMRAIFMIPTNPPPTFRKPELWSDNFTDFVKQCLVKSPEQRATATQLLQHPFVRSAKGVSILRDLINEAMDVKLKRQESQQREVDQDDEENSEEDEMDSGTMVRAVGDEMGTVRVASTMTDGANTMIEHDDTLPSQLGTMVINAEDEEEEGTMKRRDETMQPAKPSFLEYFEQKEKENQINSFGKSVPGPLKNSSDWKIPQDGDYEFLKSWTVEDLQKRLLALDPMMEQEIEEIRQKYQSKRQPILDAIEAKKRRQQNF

[2] = target: Phosphatidylinositol 4-kinase beta (Homo sapiens) (UniProt Q9UBF8); experiment: Inhibition of PI4KB ATP labeling site harbouring VPHTQAVVLNSKDKAPYLIYVEVLECENFDTTSVPAR in human A-375 cells at 0.05 uM by KiNativ Profiling analysis relative to control; assay type: cell-based
[3] = target: Glycogen synthase kinase-3 alpha (Homo sapiens) (UniProt P49840); experiment: Inhibition of GSK3A (unknown origin) at 1 uM by Ambit Kinomescan binding assay relative to control; values are per cent of control
Chain of Glycogen synthase kinase-3 alpha (Homo sapiens) (P49840 2-483 limits assumed): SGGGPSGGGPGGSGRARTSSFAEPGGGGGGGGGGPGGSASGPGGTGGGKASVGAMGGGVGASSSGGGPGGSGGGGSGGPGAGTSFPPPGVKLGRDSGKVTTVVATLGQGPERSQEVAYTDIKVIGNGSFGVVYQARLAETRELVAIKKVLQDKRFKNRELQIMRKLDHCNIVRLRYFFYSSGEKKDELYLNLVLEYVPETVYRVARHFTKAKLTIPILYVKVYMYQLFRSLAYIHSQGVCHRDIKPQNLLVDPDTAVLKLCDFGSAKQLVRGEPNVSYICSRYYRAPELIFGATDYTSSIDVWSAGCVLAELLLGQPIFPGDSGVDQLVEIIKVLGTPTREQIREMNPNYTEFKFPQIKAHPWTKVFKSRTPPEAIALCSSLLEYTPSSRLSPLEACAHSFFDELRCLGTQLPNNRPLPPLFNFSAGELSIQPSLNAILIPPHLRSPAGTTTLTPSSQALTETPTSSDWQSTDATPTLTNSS

[4] = target: Homeodomain-interacting protein kinase 3 (Homo sapiens) (UniProt Q9H422); experiment: Inhibition of HIPK3 (unknown origin) at 1 uM by Ambit Kinomescan binding assay relative to control; values are per cent of control
Chain of Homeodomain-interacting protein kinase 3 (Homo sapiens) (Q9H422 whole entry, looked up): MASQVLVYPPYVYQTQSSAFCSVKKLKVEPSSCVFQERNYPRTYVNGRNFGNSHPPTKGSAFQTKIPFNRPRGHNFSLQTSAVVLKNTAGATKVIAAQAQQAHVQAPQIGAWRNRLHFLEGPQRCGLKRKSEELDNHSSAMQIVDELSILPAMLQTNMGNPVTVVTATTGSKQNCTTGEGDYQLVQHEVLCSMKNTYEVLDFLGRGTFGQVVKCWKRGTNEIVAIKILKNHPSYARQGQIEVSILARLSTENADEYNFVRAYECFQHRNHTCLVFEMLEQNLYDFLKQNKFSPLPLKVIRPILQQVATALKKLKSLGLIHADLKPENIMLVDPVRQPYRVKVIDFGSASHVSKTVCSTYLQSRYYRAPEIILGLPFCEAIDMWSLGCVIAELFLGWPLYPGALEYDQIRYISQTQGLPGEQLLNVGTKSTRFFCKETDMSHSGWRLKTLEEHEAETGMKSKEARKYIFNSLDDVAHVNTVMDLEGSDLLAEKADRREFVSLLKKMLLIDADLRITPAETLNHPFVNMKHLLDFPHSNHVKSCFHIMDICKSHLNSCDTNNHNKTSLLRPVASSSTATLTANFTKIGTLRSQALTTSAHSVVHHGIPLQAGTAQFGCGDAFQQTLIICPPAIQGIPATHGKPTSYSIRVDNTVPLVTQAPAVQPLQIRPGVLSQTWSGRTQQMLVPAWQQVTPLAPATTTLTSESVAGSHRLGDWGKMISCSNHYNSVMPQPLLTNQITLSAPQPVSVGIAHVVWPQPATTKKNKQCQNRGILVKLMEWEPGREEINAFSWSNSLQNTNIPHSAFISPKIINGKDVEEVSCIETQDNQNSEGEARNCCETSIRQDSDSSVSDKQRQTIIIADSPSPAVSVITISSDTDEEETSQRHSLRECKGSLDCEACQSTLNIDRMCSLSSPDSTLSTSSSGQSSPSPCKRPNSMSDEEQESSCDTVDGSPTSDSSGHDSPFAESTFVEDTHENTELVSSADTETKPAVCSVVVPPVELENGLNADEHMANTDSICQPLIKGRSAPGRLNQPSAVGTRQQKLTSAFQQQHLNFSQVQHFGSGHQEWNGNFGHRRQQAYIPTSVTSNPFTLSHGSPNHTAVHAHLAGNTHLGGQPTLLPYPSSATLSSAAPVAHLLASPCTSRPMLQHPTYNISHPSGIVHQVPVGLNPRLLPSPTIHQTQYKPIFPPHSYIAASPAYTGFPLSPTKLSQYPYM

[5] = target: Receptor tyrosine-protein kinase erbB-3 (Homo sapiens) (UniProt P21860); experiment: Inhibition of HER3/ErbB3 Lys1 labeling site in human A-375 cells at 0.05 uM by KiNativ Profiling analysis relative to control; assay type: cell-based
[6] = target: Serine/threonine-protein kinase mTOR (Homo sapiens) (UniProt P42345); experiment: Inhibition of FRAP ATP labeling site in human A-375 cells at 0.05 uM by KiNativ Profiling analysis relative to control; assay type: cell-based
[7] = target: Rho-associated protein kinase 1 (Homo sapiens) (UniProt Q13464); experiment: Inhibition of ROCK1 in human Huh-7 cells at 10 uM by KiNativ Profiling analysis relative to control; assay type: cell-based
[8] = target: Mitogen-activated protein kinase 4 (Homo sapiens) (UniProt P31152); experiment: Inhibition of ERK4 (unknown origin) at 10 uM by Ambit Kinomescan binding assay
Chain of Mitogen-activated protein kinase 4 (Homo sapiens) (P31152 whole entry): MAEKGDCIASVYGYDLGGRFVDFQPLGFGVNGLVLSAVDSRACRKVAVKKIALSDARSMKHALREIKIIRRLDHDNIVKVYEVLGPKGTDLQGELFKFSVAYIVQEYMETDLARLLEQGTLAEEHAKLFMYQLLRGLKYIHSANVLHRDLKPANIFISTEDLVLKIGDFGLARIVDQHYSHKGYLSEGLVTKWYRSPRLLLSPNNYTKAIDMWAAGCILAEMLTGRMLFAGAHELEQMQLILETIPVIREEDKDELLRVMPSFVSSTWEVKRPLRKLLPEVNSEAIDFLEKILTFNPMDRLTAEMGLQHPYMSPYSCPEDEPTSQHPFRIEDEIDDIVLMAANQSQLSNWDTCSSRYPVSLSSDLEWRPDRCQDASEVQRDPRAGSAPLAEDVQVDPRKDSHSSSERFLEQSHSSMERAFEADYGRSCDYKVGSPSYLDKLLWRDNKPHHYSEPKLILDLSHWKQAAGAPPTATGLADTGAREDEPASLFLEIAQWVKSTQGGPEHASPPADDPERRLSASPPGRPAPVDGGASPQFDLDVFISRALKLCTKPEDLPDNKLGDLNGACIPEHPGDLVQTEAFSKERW

[9] = target: Proto-oncogene tyrosine-protein kinase ROS (Homo sapiens) (UniProt P08922); experiment: Inhibition of ROS1 (unknown origin) at 10 uM by Ambit Kinomescan binding assay
Chain of Proto-oncogene tyrosine-protein kinase ROS (Homo sapiens) (P08922 whole entry): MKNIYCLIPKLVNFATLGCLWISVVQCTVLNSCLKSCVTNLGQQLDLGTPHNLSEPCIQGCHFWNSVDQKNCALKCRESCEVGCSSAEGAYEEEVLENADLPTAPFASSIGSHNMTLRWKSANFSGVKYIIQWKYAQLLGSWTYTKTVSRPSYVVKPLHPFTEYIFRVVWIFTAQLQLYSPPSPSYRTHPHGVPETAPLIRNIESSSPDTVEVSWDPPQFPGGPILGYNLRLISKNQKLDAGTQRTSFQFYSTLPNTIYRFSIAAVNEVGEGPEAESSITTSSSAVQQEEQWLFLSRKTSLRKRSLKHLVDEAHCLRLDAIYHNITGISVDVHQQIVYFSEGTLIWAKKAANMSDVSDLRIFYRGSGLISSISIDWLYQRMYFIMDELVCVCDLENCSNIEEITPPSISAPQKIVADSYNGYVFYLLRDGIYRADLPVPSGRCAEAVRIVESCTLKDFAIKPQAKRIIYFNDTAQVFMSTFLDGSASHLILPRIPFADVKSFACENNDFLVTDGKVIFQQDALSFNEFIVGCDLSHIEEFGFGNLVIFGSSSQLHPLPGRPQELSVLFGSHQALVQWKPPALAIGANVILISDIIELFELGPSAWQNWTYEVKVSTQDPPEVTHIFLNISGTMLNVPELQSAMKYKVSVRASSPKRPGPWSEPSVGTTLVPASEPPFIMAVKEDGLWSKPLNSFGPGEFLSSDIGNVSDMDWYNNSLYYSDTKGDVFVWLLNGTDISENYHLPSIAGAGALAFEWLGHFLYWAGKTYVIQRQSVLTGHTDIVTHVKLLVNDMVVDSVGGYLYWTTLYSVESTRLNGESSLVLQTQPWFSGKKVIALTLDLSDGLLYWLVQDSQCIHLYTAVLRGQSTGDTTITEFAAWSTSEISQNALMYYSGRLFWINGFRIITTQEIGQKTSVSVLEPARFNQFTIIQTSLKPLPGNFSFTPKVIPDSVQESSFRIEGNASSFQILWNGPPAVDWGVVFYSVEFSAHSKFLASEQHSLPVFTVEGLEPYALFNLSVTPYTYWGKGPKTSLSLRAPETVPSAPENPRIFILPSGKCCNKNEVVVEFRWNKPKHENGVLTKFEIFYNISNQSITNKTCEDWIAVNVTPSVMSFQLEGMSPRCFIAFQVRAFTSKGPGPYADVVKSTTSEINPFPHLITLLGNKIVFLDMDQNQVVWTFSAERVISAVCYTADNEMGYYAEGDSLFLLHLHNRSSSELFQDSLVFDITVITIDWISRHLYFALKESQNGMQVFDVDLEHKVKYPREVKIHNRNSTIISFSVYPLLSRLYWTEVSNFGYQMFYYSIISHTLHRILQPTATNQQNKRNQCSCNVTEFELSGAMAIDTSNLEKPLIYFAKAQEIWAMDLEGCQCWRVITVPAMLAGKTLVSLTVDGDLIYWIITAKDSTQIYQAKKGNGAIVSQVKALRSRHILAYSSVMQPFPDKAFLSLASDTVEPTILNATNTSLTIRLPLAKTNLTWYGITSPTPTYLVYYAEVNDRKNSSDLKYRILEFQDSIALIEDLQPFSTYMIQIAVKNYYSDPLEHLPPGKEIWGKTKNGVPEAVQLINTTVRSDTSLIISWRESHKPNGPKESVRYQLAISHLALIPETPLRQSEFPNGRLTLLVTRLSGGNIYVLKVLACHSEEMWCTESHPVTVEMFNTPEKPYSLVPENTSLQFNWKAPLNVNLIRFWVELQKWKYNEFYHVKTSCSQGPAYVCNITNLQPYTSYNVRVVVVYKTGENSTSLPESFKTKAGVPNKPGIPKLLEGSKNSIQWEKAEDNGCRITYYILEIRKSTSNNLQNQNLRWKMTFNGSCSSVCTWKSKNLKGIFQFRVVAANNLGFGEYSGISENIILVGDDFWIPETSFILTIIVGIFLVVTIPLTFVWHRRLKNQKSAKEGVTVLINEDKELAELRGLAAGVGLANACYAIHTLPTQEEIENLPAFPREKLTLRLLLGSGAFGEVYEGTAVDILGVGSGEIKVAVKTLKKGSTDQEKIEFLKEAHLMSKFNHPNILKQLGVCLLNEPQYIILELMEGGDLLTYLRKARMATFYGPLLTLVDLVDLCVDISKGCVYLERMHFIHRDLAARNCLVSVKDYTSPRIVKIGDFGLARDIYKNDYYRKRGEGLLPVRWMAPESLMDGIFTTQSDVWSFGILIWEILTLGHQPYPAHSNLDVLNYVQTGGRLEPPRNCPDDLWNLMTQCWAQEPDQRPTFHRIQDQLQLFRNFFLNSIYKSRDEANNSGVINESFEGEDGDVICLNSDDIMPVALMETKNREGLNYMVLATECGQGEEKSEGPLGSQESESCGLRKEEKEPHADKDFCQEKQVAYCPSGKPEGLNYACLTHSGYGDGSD

[10] = target: Calcium/calmodulin-dependent protein kinase type II subunit gamma (Homo sapiens) (UniProt Q13555); experiment: Inhibition of CaMK2g K1 labeling site in human Huh-7 cells at 10 uM by KiNativ Profiling analysis relative to control; assay type: cell-based
[11] = target: Activin receptor type-2B (Homo sapiens) (UniProt Q13705); experiment: Inhibition of ACVR2B (unknown origin) at 10 uM by Ambit Kinomescan binding assay
[12] = target: Serine/threonine-protein kinase 3/4 (Homo sapiens) (UniProt Q13043+Q13188); experiment: Inhibition of MST1/2 K2 labeling site in human Huh-7 cells at 10 uM by KiNativ Profiling analysis relative to control; assay type: cell-based
[13] = target: T1, Serine/threonine-protein kinase Chk1 (Homo sapiens) (UniProt O14757); experiment: Inhibition of CHK1 Lys2 labeling site in human Huh-7 cells at 1 uM by KiNativ Profiling analysis relative to control; assay type: cell-based
T1 sequence (whole entry): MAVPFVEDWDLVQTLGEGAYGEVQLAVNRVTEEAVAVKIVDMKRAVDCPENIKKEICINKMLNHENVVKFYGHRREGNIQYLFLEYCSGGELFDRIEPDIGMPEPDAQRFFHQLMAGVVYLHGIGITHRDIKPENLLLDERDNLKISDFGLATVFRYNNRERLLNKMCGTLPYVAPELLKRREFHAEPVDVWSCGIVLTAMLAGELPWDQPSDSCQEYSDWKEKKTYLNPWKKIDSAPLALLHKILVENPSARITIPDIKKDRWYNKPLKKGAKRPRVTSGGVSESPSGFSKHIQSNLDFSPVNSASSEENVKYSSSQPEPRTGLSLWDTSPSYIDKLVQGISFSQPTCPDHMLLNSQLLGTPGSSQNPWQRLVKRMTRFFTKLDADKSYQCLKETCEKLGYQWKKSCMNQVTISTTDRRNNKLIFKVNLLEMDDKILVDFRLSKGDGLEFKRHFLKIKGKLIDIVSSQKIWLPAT

[14] = target: T2, Serine/threonine-protein kinase TBK1 (Homo sapiens) (UniProt Q9UHD2); experiment: Inhibition of TBK1 Lys1 labeling site in human Huh-7 cell lysate at 1 uM by KiNativ Profiling analysis relative to control; assay type: subcellular
T2 sequence (whole entry): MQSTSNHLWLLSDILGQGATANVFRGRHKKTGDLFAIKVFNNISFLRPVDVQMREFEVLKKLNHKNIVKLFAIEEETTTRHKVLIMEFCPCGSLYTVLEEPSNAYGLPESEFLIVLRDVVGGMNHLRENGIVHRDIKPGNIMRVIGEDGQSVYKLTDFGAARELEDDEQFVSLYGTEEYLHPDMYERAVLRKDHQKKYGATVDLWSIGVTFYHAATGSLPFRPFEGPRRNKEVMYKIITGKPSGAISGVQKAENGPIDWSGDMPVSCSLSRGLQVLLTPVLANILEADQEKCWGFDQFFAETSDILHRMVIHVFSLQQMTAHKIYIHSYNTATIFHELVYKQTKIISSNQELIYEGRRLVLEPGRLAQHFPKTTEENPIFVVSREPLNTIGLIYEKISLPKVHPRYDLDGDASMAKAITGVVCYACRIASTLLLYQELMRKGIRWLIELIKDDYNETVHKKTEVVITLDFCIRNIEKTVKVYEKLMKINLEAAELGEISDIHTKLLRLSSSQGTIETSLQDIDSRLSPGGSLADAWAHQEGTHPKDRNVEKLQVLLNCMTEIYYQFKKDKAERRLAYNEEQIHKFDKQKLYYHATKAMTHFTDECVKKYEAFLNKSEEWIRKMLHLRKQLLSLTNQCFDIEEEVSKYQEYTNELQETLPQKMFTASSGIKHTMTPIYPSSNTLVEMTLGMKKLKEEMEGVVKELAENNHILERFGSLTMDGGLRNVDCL

[15] = target: T3, Dual specificity mitogen-activated protein kinase kinase 6 (Homo sapiens) (UniProt P52564); experiment: Inhibition of MAP2K6 Lys2 labeling site in human Huh-7 cell lysate at 1 uM by KiNativ Profiling analysis relative to control; assay type: subcellular
T3 sequence (whole entry): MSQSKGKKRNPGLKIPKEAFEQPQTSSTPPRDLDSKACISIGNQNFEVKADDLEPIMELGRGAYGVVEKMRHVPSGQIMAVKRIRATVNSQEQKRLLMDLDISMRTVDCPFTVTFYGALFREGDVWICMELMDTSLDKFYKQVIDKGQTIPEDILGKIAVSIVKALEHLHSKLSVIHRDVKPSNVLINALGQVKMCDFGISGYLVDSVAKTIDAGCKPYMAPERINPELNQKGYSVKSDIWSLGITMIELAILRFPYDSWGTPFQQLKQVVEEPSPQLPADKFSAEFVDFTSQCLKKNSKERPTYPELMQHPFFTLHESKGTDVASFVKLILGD

## CCN1CCN(Cc2ccc(NC(=O)c3ccc(C)c(/C=C/c4cnc5[nH]ccc5c4OC)c3)cc2C(F)(F)F)CC1
[1]
  inhibition: 11.9%
[2]
  inhibition: 11.6%
[3]
  residual activity: 100%
[4]
  residual activity: 80%
[5]
  inhibition: 21.3%
[6]
  inhibition: -7.6%

## CCN1CCN(Cc2ccc(NC(=O)c3ccc(C)c(Oc4ccnc5[nH]ccc45)c3)cc2C(F)(F)F)CC1
[7]
  inhibition: 7.5%
[8]
  inhibition: inactive
[9]
  inhibition: inactive
[10]
  inhibition: 0%
[11]
  inhibition: inactive
[12]
  inhibition: -9.8%

## CNc1cc(Oc2cc(C(=O)Nc3cc(N4CCN(C)CC4)cc(C(F)(F)F)c3)ccc2C)ncn1
[13]
  inhibition: 22.5%
[14]
  inhibition: -1.5%
[15]
  inhibition: -4%
